These results are taken from ChEMBL document CHEMBL4765384, “Development of a metabolically stable topoisomerase I poison as anticancer agent” (Eur J Med Chem, 2020).

As usually defined, the IC50 is the concentration that gives 50% inhibition. Broadly, the half-life is how long it takes for the measured level to halve. Read a high half-life as slow loss. One may read the solubility as the dissolved amount per volume that the medium holds. Broadly, the logD is lipophilicity at a set pH, counting ionised and neutral species.

The test system of one data set is HEK293. As to the kind of experiment: Cytotoxicity against HEK293 cells assessed as reduction in cell viability after 48 hr by MTT assay. Format: cell-based. The note with it: Homo sapiens, HEK293, 48 h. On the technique in general: Tetrazolium assays rely on reduction of a dye to a coloured formazan, in cell work by metabolically active cells.
Data set [1] can be described thus: Half life in human liver microsomes by LC-MS/MS analysis. Format: ADME, Microsome. In general terms: Liver microsomes are vesicles of endoplasmic reticulum, rich in cytochrome P450 enzymes.
Data set [2] in a line: Aqueous solubility of compound. Format: physicochemical.
A short description of data set [3]: Stability in human plasma assessed as parent compound remaining after 2 hrs. As to conditions: read-out: Stabilty. Format: ADME, cell-free.
A short description of data set [4]: Lipophilicity, logD of the compound at pH 7.4. Format: physicochemical. As to conditions: buffer.
A short description of data set [5]: Stability in human liver microsomes assessed as parent compound remaining after 60 mins by LC-MS/MS analysis. Format: ADME, Microsome. The note with it: read-out: Stabilty.
The nature of data set [6]: Stability in human liver microsomes assessed as parent compound remaining after 60 mins in presence of cofactor by LC-MS/MS analysis. Format: ADME, Microsome. As to conditions: read-out: Stabilty.
Data set [7] can be described thus: Intrinsic clearance in human liver microsomes after 60 mins in presence of cofactor by LC-MS/MS analysis. Format: ADME, Microsome. As to conditions: 1 h.
In data set [8] the target is T1, DNA topoisomerase 1 (Homo sapiens, UniProt P11387).
T1 sequence (P11387 whole entry): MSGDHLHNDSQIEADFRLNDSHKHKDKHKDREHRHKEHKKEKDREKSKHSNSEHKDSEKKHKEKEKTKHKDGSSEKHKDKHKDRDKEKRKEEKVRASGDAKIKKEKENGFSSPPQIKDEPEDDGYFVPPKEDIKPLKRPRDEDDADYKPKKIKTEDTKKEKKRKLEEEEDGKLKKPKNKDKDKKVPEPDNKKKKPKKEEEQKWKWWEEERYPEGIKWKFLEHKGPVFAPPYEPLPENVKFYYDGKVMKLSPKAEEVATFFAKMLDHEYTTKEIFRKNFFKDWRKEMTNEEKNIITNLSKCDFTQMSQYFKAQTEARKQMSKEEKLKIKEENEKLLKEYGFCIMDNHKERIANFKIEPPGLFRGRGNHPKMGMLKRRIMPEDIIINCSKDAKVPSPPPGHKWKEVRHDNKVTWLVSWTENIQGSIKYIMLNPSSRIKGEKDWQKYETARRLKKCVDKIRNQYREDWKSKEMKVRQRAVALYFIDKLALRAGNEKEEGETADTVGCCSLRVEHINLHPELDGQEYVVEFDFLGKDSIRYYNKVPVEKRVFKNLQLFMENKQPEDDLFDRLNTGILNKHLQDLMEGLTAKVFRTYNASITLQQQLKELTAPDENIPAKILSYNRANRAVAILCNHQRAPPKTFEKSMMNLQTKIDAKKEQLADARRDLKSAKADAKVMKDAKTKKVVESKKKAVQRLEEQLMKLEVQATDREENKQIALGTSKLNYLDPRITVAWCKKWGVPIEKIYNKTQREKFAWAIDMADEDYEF
As to the kind of experiment: Inhibition of recombinant human Top1 expressed in baculovirus infected sf9 insect cells using supercoiled pBS (SK+) DNA as substrate incubated for 30 mins by ethidium bromide staining based agarose gel electrophoresis analysis.

The next data set deals with MCF7. As to the kind of experiment: Cytotoxicity against human MCF7 cells assessed as reduction in cell viability after 48 hr by MTT assay. As to conditions: MCF7, 48 h. Format: functional, cell-based.
The target in data set [9] is T1, DNA topoisomerase 1. Put plainly: Inhibition of Top1 in human MCF7 cells using supercoiled pBS (SK+) DNA as substrate incubated for 30 mins by ethidium bromide staining based agarose gel electrophoresis analysis. Format: cell-based.

≈ marks a conversion by molar mass, not a printed value.

`CC[C@@]1(O)C(=O)OCc2c1cc1n(c2=O)Cc2cc3ccccc3nc2-1` [CAMPTOTHECIN]: in the data set with HEK293, the IC50 came out at 8.75 µM.
Take `Cc1ccc(-c2ccc3ncc(-c4nnco4)c(NCCCn4ccnc4)c3c2)cc1`: in [1], the half-life was found to be 7.77 min. This molecule also displayed a solubility in [2] of 0.3 µg/mL (≈ 0.731 µM). For the same molecule, the remaining at 2 h in [3] was 90.8%. The molecule further showed a logD in [4] of more than 3.5. The results for the remaining at 1 h in [5] and in data set [6] were 0% and 93%, respectively. The CLH in data set [7] came out at 89.3 µL/min/mg.
Consider `COc1ccc(-c2ccc3ncc(-c4nnco4)c(NCCCn4cccc4)c3c2)cc1`, for which, on DNA topoisomerase 1 [8], the IC50 is more than 10 µM.
Take `COc1ccc(-c2ccc3ncc(-c4nnco4)c(NCCCN4CCCC4)c3c2)cc1`: the IC50 at DNA topoisomerase 1 [8] was more than 10 µM.
`COc1ccc(-c2ccc3ncc(-c4nnco4)c(NCCCn4ccnc4)c3c2)cc1` returned a half-life in data set [1] of 9.94 min. Besides, the remaining at 1 h in data set [5] amounted to 1.68%; in data set [6], 112%. Moreover, the CLH in data set [7] was 69.7 µL/min/mg.
Regarding `Nc1ccc(-c2ccc3ncc(-c4nnco4)c(NCCCn4ccnc4)c3c2)cc1`, the IC50 with MCF7 is 2.5 µM; against DNA topoisomerase 1 [9] it was 2.5 µM; in the data set on HEK293 it was more than 10 µM. For the same molecule, the half-life in data set [1] is 69.1 min. Also, the remaining at 2 h in [3] was 91.3%. Also, the remaining at 1 h in data set [5] came to 53.7%; in [6], 93.8%. Moreover, the CLH in data set [7] turned out to be 10 µL/min/mg.
